From ChEMBL document CHEMBL3885861, “Open TG-GATES”

Organism: Rattus norvegicus
Assay: Open TG-GATES - Regimen: Single
Type: toxicity, organism-based, Sprague-Dawley
Design: regimen Single, gender Male, age 6 weeks
Conditions: in vivo, po, 300 mg/kg, route gavage, dose level Low; for APTT / Bas / Eos / Fbg / Hb / Ht / Lym / MCH / MCHC / MCV / Mono / Neu / PT / Plat / RBC / Ret / WBC: tissue Blood; for KIDNEY_L / KIDNEY_R / KIDNEY_TOTAL: tissue Kidney; for LIVER: tissue Liver; for A/G / ALP / ALT / AST / BUN / CRE / Ca / Cl / DBIL / GLC / IP / K / LDH / Na / PL / RALB / TBIL / TC / TG / TP / gamma-GTP: tissue Plasma

How did the TERMINAL_BW (3 h) turn out when `Clc1c(Cl)c(Cl)c(Cl)c(Cl)c1Cl` [PERCHLOROBENZENE] was run?
Its TERMINAL_BW is 219 g.

What about the APTT (3 h) of the same molecule?
The APTT was 18.9 s.

And the Bas (3 h)?
The Bas was 0%.

And the Eos (3 h)?
The Eos was 1%.

And the Fbg (3 h)?
Its Fbg is 225 mg/dL.

And the Hb (3 h)?
The Hb was 13.3 g/dL.

And the Ht (3 h)?
Its Ht is 37.8%.

What about the Lym (3 h) of the same molecule?
The Lym was 72.2%.

What about the MCH (3 h) of the same molecule?
Its MCH is 21.8 pg.

And the MCHC (3 h)?
Its MCHC is 35.2%.

And the MCV (3 h)?
Its MCV is 61.7 fL.

What about the Mono (3 h) of the same molecule?
Its Mono is 2.8%.

What about the Neu (3 h) of the same molecule?
Its Neu is 23.2%.

What about the PT (3 h) of the same molecule?
The PT was 11.9 s.

What about the Plat (3 h) of the same molecule?
The Plat was 121.8 x10_4/uL.

What about the RBC (3 h) of the same molecule?
Its RBC is 613.6 x10_4/ul.

And the Ret (3 h)?
Its Ret is 7.1%.

What about the WBC (3 h) of the same molecule?
Its WBC is 86.9 x10_2/uL.

What about the KIDNEY_L (3 h) of the same molecule?
Its KIDNEY_L is 1 g.

What about the KIDNEY_R (3 h) of the same molecule?
The KIDNEY_R was 1 g.

What about the KIDNEY_TOTAL (3 h) of the same molecule?
Its KIDNEY_TOTAL is 2 g.

What about the LIVER (3 h) of the same molecule?
Its LIVER is 9.9 g.

What about the A/G (3 h) of the same molecule?
The A/G was 1.7.

What about the ALP (3 h) of the same molecule?
Its ALP is 1023.6 IU/L.

What about the ALT (3 h) of the same molecule?
The ALT was 42.4 IU/L.

And the AST (3 h)?
Its AST is 87.2 IU/L.

What about the BUN (3 h) of the same molecule?
Its BUN is 10.2 mg/dL.

What about the CRE (3 h) of the same molecule?
Its CRE is 0.4 mg/dL.

What about the Ca (3 h) of the same molecule?
Its Ca is 10.7 mg/dL.

What about the Cl (3 h) of the same molecule?
The Cl was 103 meq/L.

What about the DBIL (3 h) of the same molecule?
Its DBIL is 0.062 mg/dL.

And the GLC (3 h)?
The GLC was 195.8 mg/dL.

And the IP (3 h)?
Its IP is 9.2 mg/dL.

What about the K (3 h) of the same molecule?
The K was 3.9 meq/L.

What about the LDH (3 h) of the same molecule?
Its LDH is 211 IU/L.

What about the Na (3 h) of the same molecule?
Its Na is 140.2 meq/L.

What about the PL (3 h) of the same molecule?
Its PL is 145.8 mg/dL.

And the RALB (3 h)?
Its RALB is 3.4 g/dL.

What about the TBIL (3 h) of the same molecule?
The TBIL was 0.1 mg/dL.

What about the TC (3 h) of the same molecule?
The TC was 72.6 mg/dL.

And the TG (3 h)?
Its TG is 109 mg/dL.

And the TP (3 h)?
The TP was 5.4 g/dL.

And the gamma-GTP (3 h)?
The gamma-GTP was 1 IU/L.

What about the TERMINAL_BW (6 h) of the same molecule?
Its TERMINAL_BW is 218.5 g.

What about the APTT (6 h) of the same molecule?
Its APTT is 17.9 s.

And the Bas (6 h)?
Its Bas is 0.2%.

And the Eos (6 h)?
Its Eos is 1%.

What about the Fbg (6 h) of the same molecule?
Its Fbg is 233.6 mg/dL.

What about the Hb (6 h) of the same molecule?
Its Hb is 13.6 g/dL.

What about the Ht (6 h) of the same molecule?
Its Ht is 38.5%.

And the Lym (6 h)?
The Lym was 77.2%.

What about the MCH (6 h) of the same molecule?
The MCH was 21.9 pg.

What about the MCHC (6 h) of the same molecule?
Its MCHC is 35.3%.

What about the MCV (6 h) of the same molecule?
The MCV was 62 fL.

And the Mono (6 h)?
The Mono was 3.6%.

And the Neu (6 h)?
Its Neu is 17.2%.

What about the PT (6 h) of the same molecule?
Its PT is 11.9 s.

And the Plat (6 h)?
The Plat was 123.5 x10_4/uL.

And the RBC (6 h)?
The RBC was 623.6 x10_4/ul.

And the Ret (6 h)?
The Ret was 7%.

What about the WBC (6 h) of the same molecule?
Its WBC is 100 x10_2/uL.

And the KIDNEY_L (6 h)?
The KIDNEY_L was 1 g.

And the KIDNEY_R (6 h)?
Its KIDNEY_R is 1 g.

And the KIDNEY_TOTAL (6 h)?
Its KIDNEY_TOTAL is 1.9 g.

What about the LIVER (6 h) of the same molecule?
The LIVER was 8.9 g.

What about the A/G (6 h) of the same molecule?
Its A/G is 1.6.

And the ALP (6 h)?
The ALP was 1089 IU/L.

And the ALT (6 h)?
The ALT was 31.4 IU/L.

And the AST (6 h)?
The AST was 73.2 IU/L.

And the BUN (6 h)?
Its BUN is 8.4 mg/dL.

And the CRE (6 h)?
The CRE was 0.4 mg/dL.

What about the Ca (6 h) of the same molecule?
The Ca was 10.5 mg/dL.

And the Cl (6 h)?
Its Cl is 102.8 meq/L.

And the DBIL (6 h)?
Its DBIL is 0.072 mg/dL.

What about the GLC (6 h) of the same molecule?
The GLC was 190.6 mg/dL.

And the IP (6 h)?
Its IP is 9.4 mg/dL.

And the K (6 h)?
The K was 4.1 meq/L.

What about the LDH (6 h) of the same molecule?
Its LDH is 224.4 IU/L.

What about the Na (6 h) of the same molecule?
Its Na is 140.8 meq/L.

What about the PL (6 h) of the same molecule?
The PL was 130.6 mg/dL.

And the RALB (6 h)?
The RALB was 3.4 g/dL.

What about the TBIL (6 h) of the same molecule?
The TBIL was 0.1 mg/dL.

What about the TC (6 h) of the same molecule?
Its TC is 70.2 mg/dL.

What about the TG (6 h) of the same molecule?
The TG was 56 mg/dL.

And the TP (6 h)?
The TP was 5.5 g/dL.

What about the gamma-GTP (6 h) of the same molecule?
The gamma-GTP was 1 IU/L.
